# Laboratory results reported in patent US11643478B2, “Low-molecular-weight holothurian glycosaminoglycan and use thereof” (Suzhou Yi-hua Biomedical Technology co., Ltd, priority 2019, dated 2023).
# How the values were obtained:
# [1] = tested on: rat's learning and memory abilities of scopolamine model; test: Morris water maze test, rat dysmnesia model induced by scopolamine; assay type: in vivo, SD rats; conditions: intragastric for 2 weeks, LHG 30 mg/Kg, Donepezil 1 mg/Kg; scopolamine i.p.
# Protocol: Grouping and dose: blank control group, scopolamine model group (SCOP), positive control group:(Donepezil, 1 mg/Kg), LHG drug group (30 mg/Kg). Administration: intragastric administration. […] Morris training on Day 9 (2 times per day). Morris water maze test and platform jumping test on Day 14. Modeling method and test of learning and memory: on the day of the test, rats of scopolamine model group, positive control group and LHG drug group were injected with scopolamine hydrobromide through peritoneal cavity (firstly injection dose is 2 mg/Kg for 2 days, then injection dose is 2 mg/Kg on Day 3) at 30 minutes after intragastric administration, while rats of blank control group were injected with equal volume of normal saline through peritoneal cavity. Morris water maze test was conducted at 20 minutes after injection. The route, time and speed of the rats in the 90s were recorded automatically with computer by the camera tracking on the swimming performance of the rats, then the escaping-incubation time of seeking the platform and swimming distance were calculated.
# [2] = tested on: rat's learning and memory abilities of scopolamine model; test: Platform jumping test, rat dysmnesia model induced by scopolamine; assay type: in vivo, SD rats; conditions: intragastric for 2 weeks, LHG 30 mg/Kg, Donepezil 1 mg/Kg, scopolamine 5 mg/Kg i.p.
# Protocol: Grouping and dose: blank control group, scopolamine model group (SCOP), positive control group:(Donepezil, 1 mg/Kg), LHG drug group (30 mg/Kg). Administration: intragastric administration. […] Morris training on Day 9 (2 times per day). Morris water maze test and platform jumping test on Day 14. Platform jumping test: Learning and training on the first day, the repeated tests were conducted on the second day. Rats of scopolamine model group, positive control group and LHG drug group were injected with scopolamine hydrobromide through peritoneal cavity (5 mg/Kg) at 20 minutes before the test, while rats of blank control group were injected with equal volume of normal saline through peritoneal cavity. The incubation time of jumping off the platform for the first time (SDL) and the incubation time of avoiding electric shock (EL) were recorded.
# [3] = tested on: xylene inducing murine auricle swelling; test: Xylene inducing murine auricle swelling (anti-inflammation effect); assay type: in vivo; conditions: mice, subcutaneous injection 0.01 mL/1 g for 5 days (LHG 100 mg/mL, dexamethasone 50 mg/mL), 1 h after xylene
# Protocol: Drug preparation: LHG was added in ionized water to obtain 100 mg/mL LHG solution. Positive contrast: dexamethasone was added in ionized water to obtain 50 mg/mL dexamethasone solution. Blank contrast: ionized water.
# Administration: sub cutaneous injection.
# Experimental process: healthy mice are randomly divided into three groups (six in each group, half male and half female), name as LHG drug group, positive control group and blank control group. Three groups' mice were injected with 0.01 mL/1 g of LHG, dexamethasone and ionized water respectively. Drug was administered continuously for 5 days. 30 μL of xylenes was evenly smeared on both sides of the right ear of the mice to induce inflammation at 30 min after the last administration. The left ear was used as the reference. At 1 h after inducing inflammation, mice were executed by removing cervical vertebra. The ear pieces of the same part in the left and right ears were obtained with a hole punter, then the auricle swelling rate and inhibition rate of auricle swelling were calculated by weighing with an analytical balance.
Structure (SMILES),Escaping-incubation time [1],Swimming distance (cm) [1],Incubation time of avoiding electric shock ([2]; EL),Incubation time of jumping off the platform for the first time ([2]; SDL),Auricle swelling rate [3],Inhibition rate of auricle swelling [3]
COc1cc2c(cc1OC)C(=O)C(CC1CCN(Cc3ccccc3)CC1)C2 (stereo not drawn) [Donepezil],37.20 ± 12.72 s,1652.25 ± 295.02 cm,115.28 ± 17.54 s,48.75 ± 9.84 s,,
C[C@@H]1C[C@H]2[C@@H]3CCC4=CC(=O)C=C[C@]4(C)[C@@]3(F)[C@@H](O)C[C@]2(C)[C@@]1(O)C(=O)CO [dexamethasone],,,,,102.9% ± 11.3%,24.6%
